Experimental data as given in publication PMC6199744, “Development of Chemical Proteomics for the Folateome and Analysis of the Kinetoplastid Folateome” (ACS Infectious Diseases, 2018).
Read-outs that look alike come from different tables or passages of the source.

Key:
Type in all cases: binding
[1] = target: T1, HeLa cell extract proteins (Homo sapiens, UniProt Q14746); settings: captured protein COG2; HeLa
T1 construct: endogenous in cells; host or cells: HeLa cell extract
T1 sequence (Q14746 1-738): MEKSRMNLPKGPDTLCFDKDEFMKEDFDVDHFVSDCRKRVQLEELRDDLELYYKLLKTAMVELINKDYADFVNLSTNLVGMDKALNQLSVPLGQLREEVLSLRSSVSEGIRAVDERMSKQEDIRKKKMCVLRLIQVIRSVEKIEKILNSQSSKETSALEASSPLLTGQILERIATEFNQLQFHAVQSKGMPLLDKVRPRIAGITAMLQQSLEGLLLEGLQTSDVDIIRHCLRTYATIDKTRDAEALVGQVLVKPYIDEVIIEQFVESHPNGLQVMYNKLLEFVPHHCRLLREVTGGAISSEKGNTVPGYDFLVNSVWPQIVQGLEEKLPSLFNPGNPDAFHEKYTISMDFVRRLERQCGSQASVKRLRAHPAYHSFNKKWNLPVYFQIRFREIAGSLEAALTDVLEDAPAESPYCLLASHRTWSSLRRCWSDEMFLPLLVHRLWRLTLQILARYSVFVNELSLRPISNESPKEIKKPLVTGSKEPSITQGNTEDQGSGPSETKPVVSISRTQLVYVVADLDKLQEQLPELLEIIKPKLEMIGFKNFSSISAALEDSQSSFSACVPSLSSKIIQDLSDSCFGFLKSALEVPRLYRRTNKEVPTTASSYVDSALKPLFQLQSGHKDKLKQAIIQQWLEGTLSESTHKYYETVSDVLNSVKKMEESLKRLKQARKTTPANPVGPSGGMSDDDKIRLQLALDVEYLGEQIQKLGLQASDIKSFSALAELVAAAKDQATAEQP

[2] = target: T2, HeLa cell extract proteins (Homo sapiens, UniProt Q9Y5M8); settings: captured protein SRPRB; HeLa
T2 construct: endogenous in cells; host or cells: HeLa cell extract
T2 sequence (Q9Y5M8 1-271): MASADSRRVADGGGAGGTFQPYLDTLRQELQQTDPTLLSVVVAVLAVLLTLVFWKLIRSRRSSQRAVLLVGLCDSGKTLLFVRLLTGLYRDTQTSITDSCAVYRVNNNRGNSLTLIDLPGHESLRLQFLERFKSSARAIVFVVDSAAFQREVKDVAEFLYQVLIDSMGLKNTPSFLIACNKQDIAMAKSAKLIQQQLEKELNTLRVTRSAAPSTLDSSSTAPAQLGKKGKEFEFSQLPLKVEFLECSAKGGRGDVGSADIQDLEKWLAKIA

[3] = target: T3, HeLa cell extract proteins (Homo sapiens, UniProt P48729); settings: protein CSNK1A1; HeLa
T3 construct: endogenous in cells; host or cells: HeLa cell extract

[4] = target: T4, HeLa cell extract proteins (Homo sapiens, UniProt Q9BSJ2); settings: captured protein TUBGCP2; HeLa
T4 construct: endogenous in cells; host or cells: HeLa cell extract

[5] = target: T5, HeLa cell extract proteins (Homo sapiens, UniProt Q8WUX1); settings: HeLa; protein SLC38A5
T5 construct: endogenous in cells; host or cells: HeLa cell extract

[6] = target: T6, HeLa cell extract proteins (Homo sapiens, UniProt P20671)
T6 construct: endogenous in cells; host or cells: HeLa cell extract

[7] = target: T7, HeLa cell extract proteins (Homo sapiens, UniProt O95817)
T7 construct: endogenous in cells; host or cells: HeLa cell extract

[8] = target: T8, HeLa cell extract proteins (Homo sapiens, UniProt Q9BW92)
T8 construct: endogenous in cells; host or cells: HeLa cell extract
T8 sequence (Q9BW92 1-718): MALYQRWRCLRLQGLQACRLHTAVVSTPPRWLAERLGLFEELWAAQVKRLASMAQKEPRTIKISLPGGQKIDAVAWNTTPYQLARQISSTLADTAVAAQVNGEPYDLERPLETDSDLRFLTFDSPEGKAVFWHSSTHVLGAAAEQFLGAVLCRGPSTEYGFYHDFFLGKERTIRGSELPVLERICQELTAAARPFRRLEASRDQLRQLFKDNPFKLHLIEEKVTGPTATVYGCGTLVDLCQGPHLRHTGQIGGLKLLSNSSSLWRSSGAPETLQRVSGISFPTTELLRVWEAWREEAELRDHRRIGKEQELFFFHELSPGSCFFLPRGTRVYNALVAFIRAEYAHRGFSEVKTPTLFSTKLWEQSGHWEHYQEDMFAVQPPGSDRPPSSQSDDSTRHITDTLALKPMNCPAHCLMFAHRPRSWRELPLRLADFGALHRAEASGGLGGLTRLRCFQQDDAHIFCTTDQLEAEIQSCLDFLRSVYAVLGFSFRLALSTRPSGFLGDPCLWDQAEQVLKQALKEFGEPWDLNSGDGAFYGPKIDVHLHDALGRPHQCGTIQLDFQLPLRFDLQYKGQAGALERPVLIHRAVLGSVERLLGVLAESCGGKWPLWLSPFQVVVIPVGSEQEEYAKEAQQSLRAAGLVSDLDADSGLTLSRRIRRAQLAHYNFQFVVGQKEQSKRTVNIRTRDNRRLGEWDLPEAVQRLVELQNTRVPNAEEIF

[9] = target: T9, HeLa cell extract proteins (Homo sapiens, UniProt Q9NYP7)
T9 construct: endogenous in cells; host or cells: HeLa cell extract
T9 sequence (Q9NYP7 1-299): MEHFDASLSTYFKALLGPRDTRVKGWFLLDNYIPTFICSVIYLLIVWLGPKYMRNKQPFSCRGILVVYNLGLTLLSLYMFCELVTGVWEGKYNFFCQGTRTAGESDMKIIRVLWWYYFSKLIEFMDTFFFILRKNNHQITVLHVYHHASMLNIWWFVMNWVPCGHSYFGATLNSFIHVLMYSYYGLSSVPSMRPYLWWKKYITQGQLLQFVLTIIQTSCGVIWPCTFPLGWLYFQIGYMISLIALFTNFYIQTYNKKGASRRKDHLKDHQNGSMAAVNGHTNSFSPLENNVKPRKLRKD

[10] = target: T10, HeLa cell extract proteins (Homo sapiens, UniProt P60510)
T10 construct: endogenous in cells; host or cells: HeLa cell extract
T10 sequence (P60510 1-307): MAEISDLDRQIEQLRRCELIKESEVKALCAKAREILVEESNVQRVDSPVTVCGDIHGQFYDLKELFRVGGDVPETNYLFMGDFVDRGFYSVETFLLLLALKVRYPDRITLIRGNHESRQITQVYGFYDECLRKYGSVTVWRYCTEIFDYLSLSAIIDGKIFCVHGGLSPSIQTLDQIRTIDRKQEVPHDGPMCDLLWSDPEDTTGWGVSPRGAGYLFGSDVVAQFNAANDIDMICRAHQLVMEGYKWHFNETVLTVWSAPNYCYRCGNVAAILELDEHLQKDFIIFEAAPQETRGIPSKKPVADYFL

T7 sequence (O95817 whole entry): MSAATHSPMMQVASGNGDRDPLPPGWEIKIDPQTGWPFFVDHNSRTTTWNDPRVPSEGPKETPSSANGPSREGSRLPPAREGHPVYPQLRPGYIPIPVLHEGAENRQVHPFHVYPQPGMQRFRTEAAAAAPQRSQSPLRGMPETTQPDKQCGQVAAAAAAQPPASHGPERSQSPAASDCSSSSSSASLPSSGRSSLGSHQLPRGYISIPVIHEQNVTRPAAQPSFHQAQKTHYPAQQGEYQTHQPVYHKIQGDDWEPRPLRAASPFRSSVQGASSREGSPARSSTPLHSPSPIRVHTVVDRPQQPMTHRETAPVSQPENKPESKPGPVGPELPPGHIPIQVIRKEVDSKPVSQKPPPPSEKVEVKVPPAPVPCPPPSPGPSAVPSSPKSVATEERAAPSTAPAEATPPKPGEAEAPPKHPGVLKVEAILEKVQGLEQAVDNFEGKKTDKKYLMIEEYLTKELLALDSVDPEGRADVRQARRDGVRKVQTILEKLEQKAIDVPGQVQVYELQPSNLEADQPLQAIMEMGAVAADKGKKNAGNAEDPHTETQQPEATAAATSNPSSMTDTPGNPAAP
T4 sequence (Q9BSJ2 whole entry): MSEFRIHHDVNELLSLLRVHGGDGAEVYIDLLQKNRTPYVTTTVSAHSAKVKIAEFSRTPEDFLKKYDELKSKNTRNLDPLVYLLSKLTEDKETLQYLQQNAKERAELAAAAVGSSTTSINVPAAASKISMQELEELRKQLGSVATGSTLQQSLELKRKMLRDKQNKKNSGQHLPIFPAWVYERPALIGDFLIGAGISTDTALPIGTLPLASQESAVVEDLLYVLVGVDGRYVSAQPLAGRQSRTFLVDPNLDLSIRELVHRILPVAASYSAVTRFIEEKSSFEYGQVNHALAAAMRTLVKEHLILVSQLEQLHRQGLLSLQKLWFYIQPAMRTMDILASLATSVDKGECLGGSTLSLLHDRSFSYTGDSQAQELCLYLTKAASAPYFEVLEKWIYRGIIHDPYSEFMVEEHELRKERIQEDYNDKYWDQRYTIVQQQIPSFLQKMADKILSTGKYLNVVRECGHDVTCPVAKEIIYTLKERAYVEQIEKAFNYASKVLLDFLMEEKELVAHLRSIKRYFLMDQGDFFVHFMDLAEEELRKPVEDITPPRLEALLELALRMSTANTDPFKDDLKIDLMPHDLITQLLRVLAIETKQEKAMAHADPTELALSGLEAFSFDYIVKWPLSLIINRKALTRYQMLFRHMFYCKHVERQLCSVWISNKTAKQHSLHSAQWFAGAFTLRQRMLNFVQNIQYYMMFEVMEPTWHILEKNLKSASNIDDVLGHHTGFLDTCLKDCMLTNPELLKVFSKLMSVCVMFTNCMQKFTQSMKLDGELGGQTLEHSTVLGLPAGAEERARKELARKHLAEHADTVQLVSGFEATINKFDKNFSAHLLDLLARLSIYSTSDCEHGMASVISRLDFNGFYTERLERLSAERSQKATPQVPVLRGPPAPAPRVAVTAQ
T5 sequence (Q8WUX1 whole entry): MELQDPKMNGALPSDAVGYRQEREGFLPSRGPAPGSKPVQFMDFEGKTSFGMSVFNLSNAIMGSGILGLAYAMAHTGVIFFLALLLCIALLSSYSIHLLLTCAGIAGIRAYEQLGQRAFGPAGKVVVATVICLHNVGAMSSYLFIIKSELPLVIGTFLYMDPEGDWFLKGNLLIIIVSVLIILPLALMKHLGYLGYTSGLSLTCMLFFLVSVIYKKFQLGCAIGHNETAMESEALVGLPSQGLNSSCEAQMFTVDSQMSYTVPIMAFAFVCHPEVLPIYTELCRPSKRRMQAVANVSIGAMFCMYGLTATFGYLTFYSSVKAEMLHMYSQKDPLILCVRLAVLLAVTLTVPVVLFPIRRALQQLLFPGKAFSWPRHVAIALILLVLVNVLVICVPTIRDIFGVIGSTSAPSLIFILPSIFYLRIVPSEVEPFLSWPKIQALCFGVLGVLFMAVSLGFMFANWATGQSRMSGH
T3 sequence (P48729 whole entry): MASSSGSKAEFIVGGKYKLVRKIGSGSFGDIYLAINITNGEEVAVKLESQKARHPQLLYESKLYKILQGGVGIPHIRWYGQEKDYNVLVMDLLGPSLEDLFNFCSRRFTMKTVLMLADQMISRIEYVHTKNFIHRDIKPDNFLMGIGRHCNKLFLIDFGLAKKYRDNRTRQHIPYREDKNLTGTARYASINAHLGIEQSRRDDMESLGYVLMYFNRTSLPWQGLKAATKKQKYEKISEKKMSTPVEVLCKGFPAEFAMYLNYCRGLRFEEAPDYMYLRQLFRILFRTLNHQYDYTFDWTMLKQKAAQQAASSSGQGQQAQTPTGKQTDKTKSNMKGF

Row | SMILES | fold changes relative to vehicle control [1] | fold changes relative to vehicle control [2] | fold changes relative to vehicle control [3] | fold changes relative to vehicle control [4] | fold changes relative to vehicle control [5] | fold changes relative to vehicle control ([6]; HeLa, protein HIST1H2AD) | fold changes relative to vehicle control ([7]; HeLa, protein BAG3) | fold changes relative to vehicle control ([8]; HeLa, protein TARS2) | fold changes relative to vehicle control ([9]; HeLa, protein ELOVL5) | fold changes relative to vehicle control ([10]; protein PPP4C, HeLa) | further results
1 | Nc1nc2cccc(-c3ccccc3)c2n1Cc1ccc(Cl)c(Cl)c1 [compound 3] | 0.82 | 0.91 | 1.06 | 0.99 | 0.95 |  |  |  |  |  | 
2 | CCCCCCOc1ccc(Cc2cnc(N)nc2N)cc1 [compound 1] | 0.88 | 1.12 | 0.93 | 0.76 | 0.91 |  |  |  |  |  | 
3 | NCCCNc1ccc(C(=O)NC(CCC(=O)O)C(=O)O)cc1 (centres unmarked) [compound 7] |  |  |  |  |  | 0.97 | 0.89 | 1 | 1.02 | 1 | 
4 | CCCCCCOc1cccc(Cc2cnc(N)nc2N)c1 [compound 2] | 1 | 1.08 | 1.17 | 1.01 | 1.14 |  |  |  |  |  | 
5 | NCCOCCOCC(=O)Nc1nc2ncc(CNc3ccc(C(=O)NC(CCC(=O)O)C(=O)O)cc3)nc2c(=O)[nH]1 (centres unmarked) [compound 6] |  |  |  |  |  | 1.18 | 1.17 | 1.13 | 0.98 | 0.95 | 
6 | Nc1nc2[nH]cc(CCc3ccc(C(=O)N[C@@H](CCC(=O)O)C(=O)O)cc3)c2c(=O)[nH]1 [PTX, pemetrexed] |  |  |  |  |  |  |  |  |  |  | fold changes relative to vehicle control [6]: 1.03; fold changes relative to vehicle control [7]: 0.96; fold changes relative to vehicle control [8]: 0.87; fold changes relative to vehicle control [9]: 0.9; fold changes relative to vehicle control [10]: 0.95
7 | Nc1nc2c(c(=O)[nH]1)N(C=O)C(CNc1ccc(C(=O)N[C@@H](CCC(=O)O)C(=O)O)cc1)CN2 (some centres unmarked) [LEU, leucovorin] |  |  |  |  |  | 0.96 | 0.91 | 0.91 | 0.95 | 0.82 | 
